Measured values published in ChEMBL document CHEMBL3991601, “The target landscape of clinical kinase drugs” (Science, 2017).
Calls of active or inactive are those of the source.

Legend:
[1] = molecular target: Tyrosine-protein kinase ABL1 (Homo sapiens, UniProt P00519)
[2] = molecular target: Activin receptor type-2B (Homo sapiens, UniProt Q13705)
[3] = molecular target: T1, Glycine--tRNA ligase (Homo sapiens, UniProt P41250)
T1 sequence (P41250 whole entry): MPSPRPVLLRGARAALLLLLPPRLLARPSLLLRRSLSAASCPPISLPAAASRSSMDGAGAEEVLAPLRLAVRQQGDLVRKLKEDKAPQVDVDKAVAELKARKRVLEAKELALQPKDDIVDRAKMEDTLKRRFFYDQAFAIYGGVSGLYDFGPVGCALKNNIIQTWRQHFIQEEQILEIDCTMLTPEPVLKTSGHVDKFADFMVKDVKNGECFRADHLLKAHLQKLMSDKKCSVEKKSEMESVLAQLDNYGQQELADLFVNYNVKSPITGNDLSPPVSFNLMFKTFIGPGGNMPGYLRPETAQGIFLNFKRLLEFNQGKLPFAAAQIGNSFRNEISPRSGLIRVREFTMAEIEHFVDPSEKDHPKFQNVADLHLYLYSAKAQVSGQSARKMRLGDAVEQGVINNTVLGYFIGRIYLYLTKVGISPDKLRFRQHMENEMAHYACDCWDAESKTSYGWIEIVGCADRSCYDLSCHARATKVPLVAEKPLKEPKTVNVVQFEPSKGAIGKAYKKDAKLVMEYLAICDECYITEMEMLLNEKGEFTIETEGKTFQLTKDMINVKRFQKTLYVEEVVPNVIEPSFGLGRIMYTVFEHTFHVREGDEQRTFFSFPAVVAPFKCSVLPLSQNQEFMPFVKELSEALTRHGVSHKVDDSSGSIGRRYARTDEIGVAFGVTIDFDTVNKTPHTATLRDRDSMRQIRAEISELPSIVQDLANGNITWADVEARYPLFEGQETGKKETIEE

[4] = molecular target: NADH dehydrogenase [ubiquinone] 1 alpha subcomplex subunit 13 (Homo sapiens, UniProt Q9P0J0)
Sequence of NADH dehydrogenase [ubiquinone] 1 alpha subcomplex subunit 13 (Q9P0J0 whole entry, one chain of several): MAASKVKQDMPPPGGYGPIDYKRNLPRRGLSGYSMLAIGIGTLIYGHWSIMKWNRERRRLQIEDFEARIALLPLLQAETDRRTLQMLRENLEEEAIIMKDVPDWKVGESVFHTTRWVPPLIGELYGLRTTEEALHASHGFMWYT

[5] = molecular target: T2, Serine/threonine-protein kinase Nek1 (Homo sapiens, UniProt Q96PY6)
T2 sequence (Q96PY6 whole entry): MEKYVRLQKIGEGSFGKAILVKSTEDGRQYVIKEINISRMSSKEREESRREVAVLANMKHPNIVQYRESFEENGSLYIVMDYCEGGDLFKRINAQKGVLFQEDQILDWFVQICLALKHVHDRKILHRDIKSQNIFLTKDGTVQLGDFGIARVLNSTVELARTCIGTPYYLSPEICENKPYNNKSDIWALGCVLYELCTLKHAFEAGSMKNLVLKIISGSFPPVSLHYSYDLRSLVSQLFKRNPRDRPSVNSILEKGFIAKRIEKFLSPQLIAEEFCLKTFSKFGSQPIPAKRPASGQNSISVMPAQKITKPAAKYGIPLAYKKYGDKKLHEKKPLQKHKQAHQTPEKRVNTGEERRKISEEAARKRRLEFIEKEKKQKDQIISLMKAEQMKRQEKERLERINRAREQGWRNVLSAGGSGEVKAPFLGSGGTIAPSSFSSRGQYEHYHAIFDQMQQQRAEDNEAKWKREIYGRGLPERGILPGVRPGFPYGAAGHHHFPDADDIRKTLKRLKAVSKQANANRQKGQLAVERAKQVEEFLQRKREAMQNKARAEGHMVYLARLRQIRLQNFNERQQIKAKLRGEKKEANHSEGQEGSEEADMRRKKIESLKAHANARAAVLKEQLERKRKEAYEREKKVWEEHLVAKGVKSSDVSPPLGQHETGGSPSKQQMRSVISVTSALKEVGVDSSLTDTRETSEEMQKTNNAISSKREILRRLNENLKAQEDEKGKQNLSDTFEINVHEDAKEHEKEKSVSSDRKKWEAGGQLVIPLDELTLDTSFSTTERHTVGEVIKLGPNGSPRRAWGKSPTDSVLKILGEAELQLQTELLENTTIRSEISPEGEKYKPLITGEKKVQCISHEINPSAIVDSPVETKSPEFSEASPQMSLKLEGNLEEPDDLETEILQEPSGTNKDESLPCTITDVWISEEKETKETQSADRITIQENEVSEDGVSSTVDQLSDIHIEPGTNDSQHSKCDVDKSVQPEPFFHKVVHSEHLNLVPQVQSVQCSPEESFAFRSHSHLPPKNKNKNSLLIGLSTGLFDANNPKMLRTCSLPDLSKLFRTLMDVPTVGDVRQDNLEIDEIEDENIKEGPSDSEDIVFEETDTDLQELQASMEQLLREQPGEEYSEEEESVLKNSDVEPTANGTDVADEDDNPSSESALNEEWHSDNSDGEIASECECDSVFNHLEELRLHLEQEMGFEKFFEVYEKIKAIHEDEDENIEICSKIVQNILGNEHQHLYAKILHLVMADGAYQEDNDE

[6] = molecular target: Serine/threonine-protein kinase 26 (Homo sapiens, UniProt Q9P289)
Sequence of Serine/threonine-protein kinase 26 (Q9P289 whole entry): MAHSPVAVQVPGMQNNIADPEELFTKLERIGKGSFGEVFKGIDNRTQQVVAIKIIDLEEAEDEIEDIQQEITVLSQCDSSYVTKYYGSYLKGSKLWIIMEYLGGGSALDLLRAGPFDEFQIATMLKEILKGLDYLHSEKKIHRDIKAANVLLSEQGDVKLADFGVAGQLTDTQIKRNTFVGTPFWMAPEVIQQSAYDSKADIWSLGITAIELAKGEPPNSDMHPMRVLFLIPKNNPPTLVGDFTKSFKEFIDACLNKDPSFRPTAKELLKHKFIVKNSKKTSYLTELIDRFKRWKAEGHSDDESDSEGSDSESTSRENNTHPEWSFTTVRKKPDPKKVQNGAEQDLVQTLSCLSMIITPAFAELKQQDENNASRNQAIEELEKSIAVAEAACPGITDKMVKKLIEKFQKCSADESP

[7] = molecular target: T3, Serine/threonine-protein kinase 3 (Homo sapiens, UniProt Q13188)
T3 sequence (Q13188 whole entry): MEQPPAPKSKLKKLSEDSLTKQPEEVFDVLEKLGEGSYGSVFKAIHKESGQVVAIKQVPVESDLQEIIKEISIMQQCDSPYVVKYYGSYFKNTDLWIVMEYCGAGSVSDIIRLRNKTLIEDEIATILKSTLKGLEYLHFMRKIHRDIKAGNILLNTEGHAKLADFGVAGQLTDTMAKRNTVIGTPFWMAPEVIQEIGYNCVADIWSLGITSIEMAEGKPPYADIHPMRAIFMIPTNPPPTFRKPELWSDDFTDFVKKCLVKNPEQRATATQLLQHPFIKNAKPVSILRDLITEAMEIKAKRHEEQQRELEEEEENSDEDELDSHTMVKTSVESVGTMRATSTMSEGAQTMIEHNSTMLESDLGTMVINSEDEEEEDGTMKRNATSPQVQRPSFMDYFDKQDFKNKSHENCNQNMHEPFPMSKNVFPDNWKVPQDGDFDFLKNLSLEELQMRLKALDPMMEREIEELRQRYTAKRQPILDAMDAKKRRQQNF

[8] = molecular target: Wee1-like protein kinase (Homo sapiens, UniProt P30291)
Sequence of Wee1-like protein kinase (P30291 whole entry): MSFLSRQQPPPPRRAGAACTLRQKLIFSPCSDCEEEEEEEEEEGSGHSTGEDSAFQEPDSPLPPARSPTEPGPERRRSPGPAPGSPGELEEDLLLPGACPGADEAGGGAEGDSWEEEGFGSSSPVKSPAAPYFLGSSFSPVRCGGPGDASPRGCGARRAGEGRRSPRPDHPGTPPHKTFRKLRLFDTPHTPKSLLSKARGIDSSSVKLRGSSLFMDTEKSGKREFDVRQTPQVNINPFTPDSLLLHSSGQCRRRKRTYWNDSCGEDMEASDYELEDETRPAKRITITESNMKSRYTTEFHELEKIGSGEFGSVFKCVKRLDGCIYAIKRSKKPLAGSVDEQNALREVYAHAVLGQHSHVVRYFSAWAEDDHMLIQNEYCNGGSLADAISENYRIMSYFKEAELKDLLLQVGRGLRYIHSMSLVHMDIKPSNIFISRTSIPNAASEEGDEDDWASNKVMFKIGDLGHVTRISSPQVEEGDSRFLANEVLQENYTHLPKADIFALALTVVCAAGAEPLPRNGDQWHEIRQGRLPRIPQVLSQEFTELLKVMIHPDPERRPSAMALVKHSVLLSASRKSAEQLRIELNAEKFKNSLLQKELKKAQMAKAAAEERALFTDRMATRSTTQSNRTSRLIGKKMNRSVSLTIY
Note: in the data inactive means no Kd found up to 30 µM.

Sequence of Activin receptor type-2B (Q13705 whole entry): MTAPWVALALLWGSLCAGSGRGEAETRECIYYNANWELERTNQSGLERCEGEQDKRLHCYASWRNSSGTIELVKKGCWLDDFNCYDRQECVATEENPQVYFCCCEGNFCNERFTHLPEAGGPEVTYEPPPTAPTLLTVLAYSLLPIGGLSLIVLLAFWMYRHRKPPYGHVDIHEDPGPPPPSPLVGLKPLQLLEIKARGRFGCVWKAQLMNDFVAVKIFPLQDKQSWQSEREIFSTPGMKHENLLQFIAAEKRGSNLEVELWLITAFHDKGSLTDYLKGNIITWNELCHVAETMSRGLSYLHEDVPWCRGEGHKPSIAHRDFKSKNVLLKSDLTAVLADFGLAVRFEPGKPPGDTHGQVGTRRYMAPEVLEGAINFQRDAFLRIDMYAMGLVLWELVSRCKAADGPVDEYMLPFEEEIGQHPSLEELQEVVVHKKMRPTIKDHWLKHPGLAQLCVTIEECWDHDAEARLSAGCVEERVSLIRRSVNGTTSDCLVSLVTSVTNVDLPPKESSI
Sequence of Tyrosine-protein kinase ABL1 (P00519 whole entry): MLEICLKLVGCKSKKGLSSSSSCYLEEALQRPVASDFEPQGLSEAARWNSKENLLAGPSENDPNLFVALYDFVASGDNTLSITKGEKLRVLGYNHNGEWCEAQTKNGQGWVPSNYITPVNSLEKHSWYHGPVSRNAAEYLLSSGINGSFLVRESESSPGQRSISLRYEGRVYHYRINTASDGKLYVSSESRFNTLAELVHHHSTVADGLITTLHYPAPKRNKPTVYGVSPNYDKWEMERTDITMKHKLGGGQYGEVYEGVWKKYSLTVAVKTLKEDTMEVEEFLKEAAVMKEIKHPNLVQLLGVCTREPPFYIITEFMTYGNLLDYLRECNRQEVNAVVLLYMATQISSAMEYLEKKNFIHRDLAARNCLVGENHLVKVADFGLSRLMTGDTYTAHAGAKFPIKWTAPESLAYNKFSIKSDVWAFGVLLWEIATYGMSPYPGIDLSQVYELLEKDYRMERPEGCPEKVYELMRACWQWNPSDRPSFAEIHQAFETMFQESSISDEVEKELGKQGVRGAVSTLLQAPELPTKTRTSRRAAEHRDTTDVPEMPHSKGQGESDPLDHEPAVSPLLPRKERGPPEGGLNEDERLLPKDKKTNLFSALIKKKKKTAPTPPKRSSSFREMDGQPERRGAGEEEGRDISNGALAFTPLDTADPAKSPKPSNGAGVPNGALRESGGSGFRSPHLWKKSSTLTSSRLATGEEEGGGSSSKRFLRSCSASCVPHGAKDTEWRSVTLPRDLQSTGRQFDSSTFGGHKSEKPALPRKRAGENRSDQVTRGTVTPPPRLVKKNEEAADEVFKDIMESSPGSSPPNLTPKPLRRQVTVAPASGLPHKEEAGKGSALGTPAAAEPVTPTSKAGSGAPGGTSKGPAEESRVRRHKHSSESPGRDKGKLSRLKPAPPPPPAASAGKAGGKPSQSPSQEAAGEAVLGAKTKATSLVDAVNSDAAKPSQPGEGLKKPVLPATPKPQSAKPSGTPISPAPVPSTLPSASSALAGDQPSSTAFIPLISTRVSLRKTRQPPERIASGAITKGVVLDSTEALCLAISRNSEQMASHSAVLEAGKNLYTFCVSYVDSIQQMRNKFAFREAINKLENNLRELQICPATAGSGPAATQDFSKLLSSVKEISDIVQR

Kd [1]	Kd [2]	Kd [3]	Kd [4]	Kd [5]	Kd [6]	Kd [7]	Kd [8]	SMILES
> 30 µM (inactive)	> 30 µM (inactive)	> 30 µM (inactive)	> 30 µM (inactive)	> 30 µM (inactive)	> 30 µM (inactive)	> 30 µM (inactive)	> 30 µM (inactive)	C[C@@H](Nc1cc(F)cc(F)c1)c1cc(C(=O)N(C)C)cc2c(=O)cc(N3CCOCC3)oc12 [AZD-8186]
> 30 µM (inactive)	> 30 µM (inactive)	> 30 µM (inactive)	> 30 µM (inactive)	> 30 µM (inactive)	> 30 µM (inactive)	> 30 µM (inactive)	> 30 µM (inactive)	Cc1cc([C@@H](C)Nc2ccccc2C(=O)O)c2nc(N3CCOCC3)cc(=O)n2c1 [AZD-6482]
> 30 µM (inactive)	> 30 µM (inactive)	> 30 µM (inactive)	> 30 µM (inactive)	> 30 µM (inactive)	> 30 µM (inactive)	> 30 µM (inactive)	> 30 µM (inactive)	CCS(=O)(=O)N1CC(CC#N)(n2cc(-c3ncnc4[nH]ccc34)cn2)C1 [BARICITINIB]
> 30 µM (inactive)	> 30 µM (inactive)	> 30 µM (inactive)	–	> 30 µM (inactive)	–	> 30 µM (inactive)	> 30 µM (inactive)	CNS(=O)(=O)Nc1nccc(Cc2c(C)c3ccc(Oc4ncccn4)cc3oc2=O)c1F [AVUTOMETINIB]
–	> 30 µM (inactive)	> 30 µM (inactive)	> 30 µM (inactive)	> 30 µM (inactive)	–	–	> 30 µM (inactive)	Cc1cc(Nc2cc(N3CCN(C)CC3)nc(/C=C/c3ccccc3)n2)n[nH]1 [ENMD-2076]
–	> 30 µM (inactive)	> 30 µM (inactive)	> 30 µM (inactive)	> 30 µM (inactive)	–	> 30 µM (inactive)	> 30 µM (inactive)	COc1cc2nccc(Oc3ccc(NC(=O)NC4CC4)c(Cl)c3)c2cc1C(N)=O [LENVATINIB]
> 30 µM (inactive)	–	> 30 µM (inactive)	> 30 µM (inactive)	> 30 µM (inactive)	> 30 µM (inactive)	> 30 µM (inactive)	> 30 µM (inactive)	Cc1ccc(S(=O)(=O)Nc2nc3ccccc3nc2Nc2ccc3nsnc3c2)cc1
> 30 µM (inactive)	–	> 30 µM (inactive)	> 30 µM (inactive)	–	–	–	–	Nc1nc(N)c2nc(-c3cccc(O)c3)c(-c3cccc(O)c3)nc2n1 [TG100-115]
–	–	> 30 µM (inactive)	> 30 µM (inactive)	–	–	–	–	CCn1c(-c2nonc2N)nc2c(C#CC(C)(C)O)ncc(OC[C@H]3CCCNC3)c21 [GSK-690693]
> 30 µM (inactive)	> 30 µM (inactive)	> 30 µM (inactive)	–	> 30 µM (inactive)	> 30 µM (inactive)	> 30 µM (inactive)	> 30 µM (inactive)	C[C@@H](c1ccc2nccn2c1)n1nnc2ncc(-c3cnn(C)c3)nc21 [SAVOLITINIB]
–	–	> 30 µM (inactive)	> 30 µM (inactive)	–	–	–	–	CN1CCN(c2ccc3nc(-c4c(N)c5c(F)cccc5[nH]c4=O)[nH]c3c2)CC1 [DOVITINIB]
–	> 30 µM (inactive)	> 30 µM (inactive)	> 30 µM (inactive)	> 30 µM (inactive)	0.098 µM (active)	> 30 µM (inactive)	> 30 µM (inactive)	CCc1cnn2c(NCc3ccc[n+]([O-])c3)cc(N3CCCC[C@H]3CCO)nc12 [DINACICLIB]
–	> 30 µM (inactive)	> 30 µM (inactive)	> 30 µM (inactive)	1.1 µM (active)	0.013 µM	–	–	Cc1nc(N)sc1-c1ccnc(Nc2ccc(N3CCOCC3)cc2)n1 [CYC-116]
–	> 30 µM (inactive)	> 30 µM (inactive)	> 30 µM (inactive)	> 30 µM (inactive)	> 30 µM (inactive)	> 30 µM (inactive)	> 30 µM (inactive)	OCCn1cc(-c2cnc3nnn(Cc4ccc5ncccc5c4)c3n2)cn1 [PF-04217903]
–	> 30 µM (inactive)	> 30 µM (inactive)	> 30 µM (inactive)	> 30 µM (inactive)	> 30 µM (inactive)	> 30 µM (inactive)	> 30 µM (inactive)	COc1cc2nccc(Oc3ccc(NC(=O)Nc4cc(C)on4)c(Cl)c3)c2cc1OC [TIVOZANIB]
> 30 µM (inactive)	> 30 µM (inactive)	> 30 µM (inactive)	–	> 30 µM (inactive)	> 30 µM (inactive)	> 30 µM (inactive)	> 30 µM (inactive)	CNC(=O)c1ccc(-c2cnc3ncc(Cc4ccc5ncccc5c4)n3n2)cc1F [CAPMATINIB]
> 30 µM (inactive)	> 30 µM (inactive)	> 30 µM (inactive)	> 30 µM (inactive)	> 30 µM (inactive)	–	> 30 µM (inactive)	> 30 µM (inactive)	COc1cc(CCc2cc(NC(=O)c3ccc(N4C[C@@H](C)N[C@@H](C)C4)cc3)n[nH]2)cc(OC)c1 [AZD-4547]

SMILES	Kd [1]	Kd [2]	Kd [3]	Kd [4]	Kd [5]	Kd [6]	Kd [7]	Kd [8]
C=CC(=O)N1CCC(Oc2cc3c(Nc4ccc(Cl)c(Cl)c4F)ncnc3cc2OC)CC1 [POZIOTINIB]	> 30 µM (inactive)	> 30 µM (inactive)	> 30 µM (inactive)	–	> 30 µM (inactive)	> 30 µM (inactive)	> 30 µM (inactive)	> 30 µM (inactive)
O=C(Nc1cccc(Cl)c1)Nc1ncc(CCNc2ncnc3ccsc23)s1 [SNS-314]	–	> 30 µM (inactive)	> 30 µM (inactive)	> 30 µM (inactive)	> 30 µM (inactive)	> 30 µM (inactive)	–	> 30 µM (inactive)
CN1CCC(COc2cnc(-c3cccc(Cn4nc(-c5cccc(C#N)c5)ccc4=O)c3)nc2)CC1 [TEPOTINIB]	> 30 µM (inactive)	> 30 µM (inactive)	> 30 µM (inactive)	> 30 µM (inactive)	> 30 µM (inactive)	–	> 30 µM (inactive)	> 30 µM (inactive)
Cc1cn(-c2cc(NC(=O)c3ccc(C)c(Nc4nccc(-c5cccnc5)n4)c3)cc(C(F)(F)F)c2)cn1 [NILOTINIB]	–	–	> 30 µM (inactive)	> 30 µM (inactive)	–	–	–	–
